Source: patent publication US20120121720A1, “Modulation of Beta 2 Adrenergic Receptors by Inhibitors of EGLN3 or pVHL” (priority 2009, published 2012)

Legend:
[1] = tested on: Chronic Obstructive Pulmonary Disease; assay: Patient case examples: Chronic Obstructive Pulmonary Disease; format: in vivo, human
Experimental: Patient started on DMOG at a dose of 50 mg/kg three times per day. Patient improves as evidenced by improved spirometry. A patient having Chronic Obstructive Pulmonary Disease, receiving supplemental oxygen and treated with salbutamol and prednisone is started on DMOG at a dose of 20 mg/kg three times per day.

[2] = tested on: cystic fibrosis; assay: Patient case examples: cystic fibrosis; format: in vivo, human
Experimental: A person with cystic fibrosis presents with hypoxemia and pulmonary hemorrhage. They are begun on ethyl nitrite 20 parts per million in nitrogen, N-acetylcysteine 50 mg/kg Q 6 hours and ascorbate IV 1 gram Q 6 hours, along with DMOG at a dose of 40 mg/kg three times per day. […] They are discharged on day 7. A person with cystic fibrosis presents with labored breathing and increased sputum production.

[3] = tested on: hypertension; assay: Patient case examples: hypertension; format: in vivo, human; conditions: for Blood pressure: baseline 180/95 on hydralazine hydrochloride
Experimental: A person with hypertension and not responding to hydralazine hydrochloride (i.e., blood pressure 180/95). […] Patient is begun on DMOG at a dose of 30 mg/kg twice per day. Patient improves (i.e., blood pressure 160/90).
They are started on DMOG at a dose of 30 mg/kg twice per day. Patient improves. No limiting hypertension is noted.
A person with hypertension is not responding to hydralazine hydrochloride (i.e., blood pressure 180/95). […] Patient is begun on DMOG at a dose of 30 mg/kg twice per day. Patient improves (i.e., blood pressure 160/90).

[4] = tested on: pulmonary edema; assay: Patient case examples: pulmonary edema; format: in vivo, human; conditions: over the day
Experimental: A person presents complaining of shortness of breath. […] An intravenous line is inserted and the patient is started on IV infusion of […] per kilogram per minute nitroglycerin. They are also given an intravenous formulation of DMOG at a concentration of 10.0 mg/ml. Their symptoms improve over the day, during which time their arteriolar PO2 increases from 70 to 85 mm Hg.
A person presents complaining of shortness of breath. […] The patient is started on intravenous nitroglycerin at 25 μg per minute and DMOG at a dose of 25 mg/kg three times per day. Their symptoms improve over the day, during which time their arteriolar PO2 increases from 60 to 85 mm Hg.

[5] = tested on: sickle cell disease; assay: Patient case example: sickle cell disease crisis; format: in vivo, human; conditions: Example XX; two units of blood, 80 ppm inhaled ethyl nitrite and 100 mg/kg DMOG
Experimental: A person with homozygous sickle cell disease presents in crisis. The patient complains of severe abdominal and chest pain and is somewhat disoriented. They receive two units of blood while being administered 80 ppm inhaled ethyl nitrite and 100 mg/kg of DMOG.

[6] = tested on: asthma; assay: Patient case examples: asthma; format: in vivo, human
Experimental: A person with asthma, wherein symptoms are not improving despite receiving treatment with 250 ug beclomethasone taken in combination with an inhaler containing albuterol (when needed) is begun on DMOG at a dose of 20 mg/kg three times per day. Patient's asthma improves.
A person with asthma exacerbated by treatment with budesonide and formoterol at a dose per actuation of 160 and 4.5 mcg, respectively. Patient is begun on DMOG at a dose of 100 mg/kg once per day. Patient's asthma improves. EXAMPLE HI
A person with asthma exacerbated by treatment with fluticasone and salmeterol. Patient is begun on DMOG at a dose of 30 mg/kg twice per day. Patient's asthma improves.
A person with asthma exacerbated wherein symptoms are not improving despite receiving treatment with albuterol. Patient is begun on DMOG at a dose of 25 mg/kg three times per day. Patient's asthma improves.
A person with asthma exacerbated by treatment with budesonide and formoterol at a dose per actuation of 150.0 and 5.0 mcg, respectively. Patient is begun on malonic acid compound at a dose of 120 mg/kg once per day. Patient's asthma improves.

[7] = tested on: muscle wasting; assay: Patient case examples: lymphoma and muscle wasting, six minute walk test; format: in vivo, human
Experimental: A person with lymphoma and muscle wasting. Patient is started on carvedilol at 12.5 BID and isosorbide dinitrate at 10 mg POTID. Patient is started on an intravenous formulation of DMOG at a concentration of […]. Patient's strength improves as evidenced by a six minute walk test.
A person with lymphoma and muscle wasting. Patient is started on alprenolol and isosorbide dinitrate. Patient is started on an intravenous formulation of DMOG at a concentration of 20.0 mg/mL. Patient's strength improves as evidenced by a six minute walk test.

[8] = tested on: heart failure; assay: Patient case examples: heart failure (ejection fraction, dyspnea); format: in vivo, human; conditions: for Ejection fraction / Ejection fraction response: baseline 25%; for Ejection fraction: within one month
Experimental: The patient is started on nitroglycerin patch (Nitro-bid), 2 inches, twice a day and DMOG at a dose of 100 mg/kg once per day. Ejection fraction improves to 40% within one month.
The patient is started on nitroglycerin patch (Nitro-bid), 2 inches, twice a day and DMOG at a dose of 25 mg/kg three times per day. Ejection fraction improves to 42% within one month.
The patient is started on intravenous nitroglycerin at 20 μg per minute and DMOG at a dose of 50 mg/kg three times per day. Ejection fraction improves to 42% within one month.
A person with heart failure remains short of breath despite increasing doses of nitroglycerin.

[9] = tested on: unstable angina; assay: Patient case examples: unstable angina with nitroglycerin tolerance; format: in vivo, human; conditions: IV nitroglycerin tolerance over 48 hours
Experimental: A person with unstable angina on IV nitroglycerin develops tolerance over 48 hours as evidenced by recurrent chest pains despite increasing doses of drug.
A person with unstable angina on IV nitroglycerin develops tolerance over 48 hours as evidenced by recurrent chest pains despite increasing doses of drug. […] The patient improves.

[10] = tested on: impaired sense of smell; assay: Patient case example: impaired sense of smell; format: in vivo, human; conditions: Example XXIII; after steroidal nasal spray; DMOG nasal spray 1 mg/ml
Experimental: DMOG is administered via nasal spray in amount 1 mg/ml. Patient sense of smell improves.

[11] = target: EGLN3 binding to the β2AR (Homo sapiens, UniProt P07550)
[12] = tested on: disorders of EXAMPLES I-XXIV; conditions: Examples I-XXIV repeated; peptide 10-100 mg orally once-, twice- or three times-daily
[13] = tested on: β2AR

CC(C)(C)NCC(O)c1ccc(O)c(CO)c1 (stereo not drawn) [albuterol]
Patient outcome, COPD ([1]; Example XV, albuterol before DMOG): no improvement

N=O [HNO]
Symptomatic status ([2]; Example XIX, HNO 10 ppm in nitrogen): improvements in their symptomatic status

COC(=O)CNC(=O)C(=O)OC [DMOG, dimethyloxalylglycine]
Patient outcome, spirometry ([1]; Example XV, after albuterol, DMOG 50 mg/kg three times per day): improves
Need for supplemental oxygen ([1]; Example XVI, on supplemental oxygen, salbutamol and prednisone, DMOG 20 mg/kg three times per day): no longer requires supplemental oxygen
Blood pressure ([3]; Example X, propranolol, DMOG 30 mg/kg twice per day): 160/90
Hypertension response ([3]; Example XI, person after nitropaste, DMOG 30 mg/kg twice per day): improves
Blood pressure ([3]; Example XIII, metoprolol, DMOG 30 mg/kg twice per day): 160/90
Symptoms of pulmonary edema ([4]; Example XXI, IV nitroglycerin 0.1 mg per kilogram per minute + intravenous DMOG formulation 10.0 mg/ml): improve
Arteriolar PO2 ([4]; Example XXI, from 70, IV nitroglycerin 0.1 mg per kilogram per minute + intravenous DMOG formulation 10.0 mg/ml): 85 mm Hg
Arteriolar PO2 ([4]; Example XXII, from 60, intravenous nitroglycerin 25 μg per minute + DMOG 25 mg/kg three times per day): 85 mm Hg
Symptoms of pulmonary edema ([4]; Example XXII, intravenous nitroglycerin 25 μg per minute + DMOG 25 mg/kg three times per day): improve
Symptoms of sickle cell crisis [5]: All symptoms resolve
Patient's asthma ([6]; Example I, person not improving on 250 ug beclomethasone + albuterol inhaler, DMOG 20 mg/kg three times per day): improves
Patient's asthma ([6]; Example II, person on budesonide/formoterol 160/4.5 mcg, DMOG 100 mg/kg once per day): improves
Patient's asthma ([6]; Example III, person on fluticasone and salmeterol, DMOG 30 mg/kg twice per day): improves
Patient's asthma ([6]; Example IV, person not improving on albuterol, DMOG 25 mg/kg three times per day): improves
Patient's strength, six minute walk test ([7]; Example IX, on alprenolol and isosorbide dinitrate, intravenous DMOG formulation 20.0 mg/mL): improves
Patient's strength, six minute walk test ([7]; Example VIII, on carvedilol 12.5 BID and isosorbide dinitrate 10 mg, intravenous DMOG formulation 25.0 mg/m): improves
Ejection fraction ([8]; Example V, on carvedilol, nitroglycerin patch 2 inches twice a day + DMOG 100 mg/kg once per day): 40%
Ejection fraction ([8]; Example VI, on carvedilol 50 mg BID, nitroglycerin patch 2 inches twice a day + DMOG 25 mg/kg three times per day): 42%
Ejection fraction ([8]; Example VII, on carvedilol 25 mg divided BID, intravenous nitroglycerin 20 μg per minute + DMOG 50 mg/kg three times per day): 42%
Response to nitroglycerin after tolerance ([9]; Example XII, intravenous DMOG formulation 15.0 mg/mL): responds to nitroglycerin
Patient outcome, unstable angina ([9]; Example XIV, intravenous DMOG formulation 10.0 mg/ml): improves
Sputum production ([2]; Example XIX, after HNO 10 ppm, DMOG 20 mg/kg three times per day, over two days): decreases in sputum production
Pulmonary hemorrhage and state of health ([2]; Example XVIII, ethyl nitrite 20 ppm, N-acetylcysteine 50 mg/kg Q 6 hours, ascorbate IV 1 gram Q 6 hours + DMOG 40 mg/kg three times per day, over three days): the hemorrhage stops and the patient reverts to normal state of health
Sense of smell [10]: improves

EAISFLLSLIDRLVLY
Binding of EGLN3 to the β2AR [11]: inhibits binding
Patient outcome in each EXAMPLE [12]: exhibits improvement
Receptor expression in cells [13]: increases receptor expression

O=C(O)CC(=O)O [malonic acid compound, malonic acid]
Patient's asthma ([6]; Example XXIV, on budesonide/formoterol 150.0/5.0 mcg, malonic acid compound 120 mg/kg once per day): improves

COCCc1ccc(OCC(O)CNC(C)C)cc1 (stereo not drawn) [metoprolol]
Hypertension response ([3]; Example XIII, metoprolol before DMOG, blood pressure 180/95): without improvement

CC(C)NCC(O)COc1cccc2ccccc12 (stereo not drawn) [propranolol]
Hypertension response ([3]; Example X, propranolol before DMOG, blood pressure 180/95): without improvement

N[C@@H](CCC(=O)N[C@@H](CSN=O)C(=O)NCC(=O)O)C(=O)O [S-nitrosoglutathione]
Dyspnea and angina ([8]; Example XVII, short of breath despite nitroglycerin, S-nitrosoglutathione 0.1 μg/kg/min): improvement of dyspnea and relief of angina

COc1ccccc1OCCNCC(O)COc1cccc2[nH]c3ccccc3c12 (stereo not drawn) [carvedilol]
Ejection fraction response ([8]; Example V, carvedilol before DMOG): without ejection fraction improving
Ejection fraction response ([8]; Example VI, carvedilol 50 mg BID before DMOG): without ejection fraction improving
Ejection fraction response ([8]; Example VII, carvedilol 25 mg divided BID before DMOG): without ejection fraction improving
